Experimental data from ChEMBL document CHEMBL1201862, “PubChem BioAssay data set” (2004).
The source made the active and inactive calls.

Key:
[1] = target: Prothrombin (Homo sapiens, UniProt P00734); assay: Thrombin 1536 HTS Dose Response Confirmation. [Related pubchem assays: 1046 (Thrombin 1536 HTS; hits were confirmed in this assay)]; assay type: functional
[2] = viability of uninfected HEp-2 cells – cell-based, HTS, cytotoxicity control for RSV inhibitor project, dose response (AID 2410); assay type: functional; details: human respiratory syncytial virus
[3] = target: T1, Heat shock factor protein 1 (Mus musculus, UniProt P38532); assay: enhancement of HSF1-driven luciferase signal – cell-based, NIH3T3, luminescence, dose retest, confirmation (AID 435004); assay type: functional;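 further: stress induced by proteasome inhibitor MG132 added 30 min after compound; luciferase reporter driven by HSF1 response element in NIH3T3 cells; actives raise luminescence as potentiators of the MG132 stress response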
T1 sequence (P38532 whole entry): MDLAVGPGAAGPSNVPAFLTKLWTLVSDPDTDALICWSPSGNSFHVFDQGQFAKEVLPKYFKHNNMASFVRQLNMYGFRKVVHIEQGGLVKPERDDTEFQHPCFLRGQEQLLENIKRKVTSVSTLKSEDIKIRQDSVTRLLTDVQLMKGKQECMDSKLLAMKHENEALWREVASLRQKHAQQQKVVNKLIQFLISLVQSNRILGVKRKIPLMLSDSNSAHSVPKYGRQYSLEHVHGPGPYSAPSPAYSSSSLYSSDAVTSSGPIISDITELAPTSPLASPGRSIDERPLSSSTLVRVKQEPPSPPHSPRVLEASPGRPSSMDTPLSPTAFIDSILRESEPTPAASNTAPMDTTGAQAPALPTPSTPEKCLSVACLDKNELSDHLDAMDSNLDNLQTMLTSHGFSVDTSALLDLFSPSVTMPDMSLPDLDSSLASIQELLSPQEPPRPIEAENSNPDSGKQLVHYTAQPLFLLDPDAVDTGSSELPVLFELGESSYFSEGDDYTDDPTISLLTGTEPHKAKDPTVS

[4] = cells
[5] = target: T1, Heat shock factor protein 1; assay: decrease of HSF1-responsive luciferase luminescence – cell-based, NIH3T3, dose retest, confirmation (AID 2382); assay type: functional;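 further: NIH3T3 fibroblasts with HSF1-driven luciferase reporter stressed by proteasome inhibitor MG132; luminescence from HSF1-driven luciferase expression after 8 hours of MG132 stress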
[6] = viability loss in THP-1 monocytes – THP-1 cells, cytotoxicity control for Vif-APOBEC3G degradation inhibitor project, dose response (AID 1117359); assay type: functional; details: THP-1
[7] = viability of PTEN-deleted HCT116 cells – cell-based, HCT116 PTEN knockout, dose response (AID 1047); assay type: functional;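 further: HCT116 colon tumor cells with PTEN knocked out; cells exposed to compound for 60 hours before readout; potency for loss of cell viability measured by luminescence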
[8] = viability of HCT116 lacking mutant beta-catenin – cell-based, human colon tumor, dose response (AID 1045); assay type: functional;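 further: HCT116 colon tumor cells with beta catenin knocked out; cells exposed to compound for 60 hours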
[9] = Luminescence Cell-Based Dose Retest to Confirm Inhibitors of Cancer Stem Cells. [Related pubchem assays (depositor defined):AID2717, AID2721]; assay type: functional; details: Homo sapiens
[10] = system: INS1; assay: INS-1E survival protection against cytokine death – cell-based, luminescence, retest, dose response (AID 449756); assay type: functional; details: Rattus norvegicus;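 further: cell death triggered by IL-1 beta plus TNF-alpha plus IFN-gamma mixture; protective hits raise ATP signal compared with cytokine alone wells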
[11] = target: T2, Replicative DNA helicase DnaB (Mycobacterium tuberculosis, UniProt P9WMR3); assay: DnaB intein splicing inhibitors, dose response, biochemical, cell-free fluorescence (AID 449749); assay type: functional
T2 sequence (P9WMR3 whole entry): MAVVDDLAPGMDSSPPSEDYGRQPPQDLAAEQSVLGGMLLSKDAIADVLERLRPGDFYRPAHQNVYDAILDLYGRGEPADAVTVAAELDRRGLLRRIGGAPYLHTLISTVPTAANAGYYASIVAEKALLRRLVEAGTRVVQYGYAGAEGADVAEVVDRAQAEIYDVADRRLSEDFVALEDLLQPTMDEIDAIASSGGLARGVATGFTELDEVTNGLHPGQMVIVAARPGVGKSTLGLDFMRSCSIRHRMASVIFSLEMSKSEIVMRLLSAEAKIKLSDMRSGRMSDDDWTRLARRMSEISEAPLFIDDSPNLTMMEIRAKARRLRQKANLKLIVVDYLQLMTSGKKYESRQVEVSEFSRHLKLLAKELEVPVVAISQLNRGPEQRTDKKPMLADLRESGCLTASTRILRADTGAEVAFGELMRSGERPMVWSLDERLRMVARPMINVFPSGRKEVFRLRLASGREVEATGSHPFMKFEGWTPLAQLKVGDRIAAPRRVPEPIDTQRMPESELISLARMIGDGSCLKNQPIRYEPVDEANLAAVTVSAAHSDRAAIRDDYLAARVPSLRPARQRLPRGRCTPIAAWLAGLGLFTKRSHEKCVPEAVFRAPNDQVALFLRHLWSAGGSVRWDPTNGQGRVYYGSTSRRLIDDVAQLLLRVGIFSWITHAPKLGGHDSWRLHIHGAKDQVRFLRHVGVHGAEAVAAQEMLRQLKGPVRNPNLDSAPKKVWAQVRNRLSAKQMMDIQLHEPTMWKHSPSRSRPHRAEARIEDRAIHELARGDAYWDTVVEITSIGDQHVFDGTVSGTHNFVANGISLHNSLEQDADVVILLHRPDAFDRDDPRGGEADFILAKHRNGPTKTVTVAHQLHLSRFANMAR

[12] = target: T3, Protein RecA (Mycobacterium tuberculosis, UniProt P9WHJ3); assay: Fluorescence Cell-Free Homogeneous Dose Retest to Identify Inhibitors of RecA-Intein Splicing Activity. [Related pubchem assays (depositor defined):AID2097, AID2223, AID489010, AID492950]; assay type: functional
T3 sequence (P9WHJ3 whole entry): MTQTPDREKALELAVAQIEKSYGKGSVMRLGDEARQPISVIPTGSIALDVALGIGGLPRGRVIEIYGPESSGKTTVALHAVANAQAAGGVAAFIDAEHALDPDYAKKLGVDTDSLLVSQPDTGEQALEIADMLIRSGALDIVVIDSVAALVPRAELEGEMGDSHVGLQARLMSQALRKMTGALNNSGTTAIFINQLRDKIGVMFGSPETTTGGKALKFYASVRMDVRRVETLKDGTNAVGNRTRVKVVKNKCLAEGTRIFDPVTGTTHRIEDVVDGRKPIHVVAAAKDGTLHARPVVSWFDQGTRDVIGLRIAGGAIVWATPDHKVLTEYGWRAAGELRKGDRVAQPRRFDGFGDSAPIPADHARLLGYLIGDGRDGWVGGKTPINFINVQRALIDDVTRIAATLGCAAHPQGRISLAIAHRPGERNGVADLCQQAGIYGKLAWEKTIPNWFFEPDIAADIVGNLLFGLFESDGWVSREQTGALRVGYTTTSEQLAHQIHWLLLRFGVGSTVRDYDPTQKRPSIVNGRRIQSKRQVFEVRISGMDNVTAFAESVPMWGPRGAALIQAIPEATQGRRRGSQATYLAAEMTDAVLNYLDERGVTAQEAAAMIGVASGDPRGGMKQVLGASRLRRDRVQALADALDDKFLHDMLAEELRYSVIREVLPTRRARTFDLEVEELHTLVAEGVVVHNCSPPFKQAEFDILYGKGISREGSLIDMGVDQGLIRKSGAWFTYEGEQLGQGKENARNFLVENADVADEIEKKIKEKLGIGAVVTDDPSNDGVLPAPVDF

[13] = target: FAD-linked sulfhydryl oxidase ALR (Homo sapiens, UniProt P55789); assay: ALR-catalysed DTT oxidation blockers – biochemical, H2O2 detection, luminescence, cherry-pick, dose response (AID 493248)
Chain of FAD-linked sulfhydryl oxidase ALR (P55789 whole entry): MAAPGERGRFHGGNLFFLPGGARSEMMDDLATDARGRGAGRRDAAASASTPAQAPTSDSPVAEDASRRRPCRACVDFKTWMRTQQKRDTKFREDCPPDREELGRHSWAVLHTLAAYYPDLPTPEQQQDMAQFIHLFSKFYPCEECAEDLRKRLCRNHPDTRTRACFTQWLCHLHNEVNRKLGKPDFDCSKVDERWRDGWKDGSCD

[14] = target: T4, Caspase-6 (Homo sapiens, UniProt P55212); assay: inhibition of CASP6 peptide cleavage – biochemical, VEID-R110 fluorescence, cherry-pick, dose response (AID 720632)
T4 sequence (P55212 whole entry): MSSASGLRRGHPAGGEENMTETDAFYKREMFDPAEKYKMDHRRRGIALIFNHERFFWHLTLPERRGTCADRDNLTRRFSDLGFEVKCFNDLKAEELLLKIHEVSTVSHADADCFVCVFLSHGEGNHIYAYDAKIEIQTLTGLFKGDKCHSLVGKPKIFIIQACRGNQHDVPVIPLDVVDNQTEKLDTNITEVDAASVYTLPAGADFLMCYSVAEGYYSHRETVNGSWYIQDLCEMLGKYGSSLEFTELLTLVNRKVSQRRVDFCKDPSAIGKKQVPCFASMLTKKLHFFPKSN

[15] = target: T5, Histone-lysine N-methyltransferase NSD2 (Homo sapiens, UniProt O96028); assay type: biochemical
T5 sequence (O96028 whole entry): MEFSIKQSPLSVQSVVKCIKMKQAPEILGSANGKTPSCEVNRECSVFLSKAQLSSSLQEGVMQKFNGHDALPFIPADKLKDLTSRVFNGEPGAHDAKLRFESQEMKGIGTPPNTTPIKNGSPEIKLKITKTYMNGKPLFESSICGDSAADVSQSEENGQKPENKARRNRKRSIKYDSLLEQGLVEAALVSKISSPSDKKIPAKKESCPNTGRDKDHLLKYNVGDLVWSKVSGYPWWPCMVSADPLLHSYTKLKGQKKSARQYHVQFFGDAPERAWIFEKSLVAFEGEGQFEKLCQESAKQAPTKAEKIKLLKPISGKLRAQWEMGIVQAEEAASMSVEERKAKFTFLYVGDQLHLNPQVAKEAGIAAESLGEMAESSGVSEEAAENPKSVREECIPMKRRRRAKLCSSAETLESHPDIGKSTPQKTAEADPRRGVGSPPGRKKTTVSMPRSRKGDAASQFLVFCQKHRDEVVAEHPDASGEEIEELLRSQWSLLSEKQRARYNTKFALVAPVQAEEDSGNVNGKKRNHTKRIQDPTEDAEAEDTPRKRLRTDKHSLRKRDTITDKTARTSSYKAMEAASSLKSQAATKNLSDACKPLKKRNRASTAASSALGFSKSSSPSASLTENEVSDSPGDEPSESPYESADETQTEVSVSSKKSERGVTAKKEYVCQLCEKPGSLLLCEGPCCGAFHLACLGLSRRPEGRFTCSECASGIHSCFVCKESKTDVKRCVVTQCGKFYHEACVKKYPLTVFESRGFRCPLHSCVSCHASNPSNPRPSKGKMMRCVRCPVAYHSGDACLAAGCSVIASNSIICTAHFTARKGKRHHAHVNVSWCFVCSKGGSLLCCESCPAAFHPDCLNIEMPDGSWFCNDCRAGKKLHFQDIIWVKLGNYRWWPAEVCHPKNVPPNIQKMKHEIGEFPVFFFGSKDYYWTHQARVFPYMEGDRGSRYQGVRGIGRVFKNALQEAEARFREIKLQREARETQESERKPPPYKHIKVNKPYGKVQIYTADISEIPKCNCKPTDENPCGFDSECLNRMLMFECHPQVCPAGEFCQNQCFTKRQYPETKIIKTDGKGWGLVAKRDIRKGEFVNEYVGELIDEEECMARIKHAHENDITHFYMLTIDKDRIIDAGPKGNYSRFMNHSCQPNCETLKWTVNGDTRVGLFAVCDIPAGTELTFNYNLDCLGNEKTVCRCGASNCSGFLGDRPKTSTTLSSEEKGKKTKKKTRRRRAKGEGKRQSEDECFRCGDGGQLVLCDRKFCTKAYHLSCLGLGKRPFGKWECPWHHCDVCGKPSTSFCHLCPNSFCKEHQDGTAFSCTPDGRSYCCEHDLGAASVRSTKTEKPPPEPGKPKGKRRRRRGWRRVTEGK

[16] = target: Estrogen receptor beta (Homo sapiens, UniProt Q92731);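 further: recombinant ER-beta bound to coactivator SRC1 peptide in presence of estradiol agonist; inhibitors block coactivator peptide binding and lower the FRET signal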
Chain of Estrogen receptor beta (Q92731 whole entry): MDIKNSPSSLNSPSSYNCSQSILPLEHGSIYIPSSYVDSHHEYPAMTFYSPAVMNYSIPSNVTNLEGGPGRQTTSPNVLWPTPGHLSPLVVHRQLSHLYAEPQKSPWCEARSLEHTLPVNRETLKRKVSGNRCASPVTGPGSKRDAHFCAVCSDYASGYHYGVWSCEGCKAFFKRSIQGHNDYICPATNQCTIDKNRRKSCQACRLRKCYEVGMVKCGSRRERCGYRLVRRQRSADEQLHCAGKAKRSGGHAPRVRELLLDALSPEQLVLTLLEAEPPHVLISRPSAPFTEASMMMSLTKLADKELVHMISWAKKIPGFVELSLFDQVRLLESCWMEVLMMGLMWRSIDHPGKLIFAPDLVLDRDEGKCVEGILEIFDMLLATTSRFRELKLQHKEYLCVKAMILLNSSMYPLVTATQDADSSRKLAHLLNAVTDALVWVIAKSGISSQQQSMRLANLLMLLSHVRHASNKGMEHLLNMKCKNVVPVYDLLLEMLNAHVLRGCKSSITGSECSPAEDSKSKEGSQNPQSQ

[17] = Trypanosoma cruzi growth suppression in host cells – NIH3T3 host cells, beta-gal luminescence, confirmation (AID 2044); assay type: functional, cell-based;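 further: intracellular parasites grown in NIH/3T3 mouse fibroblasts as host cells; luminescent beta-galactosidase reporter signal from transgenic T. cruzi replicating inside host cells; inhibitors lower the luminescence signal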
[18] = NIH3T3 cell viability loss – ATP luminescence, mouse fibroblasts, counter-screen, dose response (AID 2010); assay type: functional, cell-based;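 further: cells exposed to compound for about 90 hours before reading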
[19] = cells; remark: listed apart in the source
[20] = target: Paired box protein Pax-8 (Homo sapiens, UniProt Q06710); assay: PAX8 transcriptional activity inhibition in RMG-I – RMG-I cells, luciferase, cherry-pick, dose response (AID 687027); assay type: functional, cell-based;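 further: luciferase reporter driven by Pax8 target thyroperoxidase promoter measured by SteadyGlo luminescence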
Chain of Paired box protein Pax-8 (Q06710 whole entry): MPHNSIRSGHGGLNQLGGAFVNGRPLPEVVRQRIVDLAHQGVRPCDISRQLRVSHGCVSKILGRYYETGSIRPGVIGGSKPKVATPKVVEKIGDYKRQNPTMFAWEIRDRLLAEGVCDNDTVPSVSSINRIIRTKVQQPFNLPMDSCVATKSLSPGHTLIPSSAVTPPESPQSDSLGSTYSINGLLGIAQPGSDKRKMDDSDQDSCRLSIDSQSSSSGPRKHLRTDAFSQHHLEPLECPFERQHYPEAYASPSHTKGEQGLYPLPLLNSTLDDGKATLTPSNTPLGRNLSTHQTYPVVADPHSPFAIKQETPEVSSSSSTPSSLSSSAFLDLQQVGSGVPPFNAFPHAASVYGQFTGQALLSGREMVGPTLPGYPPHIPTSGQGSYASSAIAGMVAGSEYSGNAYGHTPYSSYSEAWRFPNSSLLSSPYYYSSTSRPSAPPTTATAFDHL

[21] = OVCAR-3 cell viability loss – plate reader, dry powder samples, PAX8 inhibitor project, dose response (AID 743044); assay type: functional, cell-based

COc1ccccc1N=C(S)N(Cc1ccco1)Cc1cc2cc(C)ccc2nc1O
IC50 [1]: > 50 µM (not active)

CC(C)NC(=O)CSc1nc(-c2ccccc2)cs1
IC50 [1]: > 50 µM (not active)

Cc1ccc(N(CCCCN2C(=O)c3ccccc3C2=O)C(=O)c2cccc([N+](=O)[O-])c2)cc1
CC50 [2]: > 50 µM (active) | EC50 [3]: 33.2 µM (active) | IC50 [4]: 15.8 µM (active)

CCOc1ccccc1NC(=O)Cn1c(-c2ccc(Cl)cc2)noc1=O
EC50 [5]: > 195 µM (not active) | CC50 [6]: > 40 µM (active)

O=C(/C=C/c1ccc(Cl)cc1)c1cccnc1
EC50 [7]: 1.75 µM (active) | EC50 [8]: 0.793 µM (active)

O=C(NCc1cccnc1)/C(=C/c1ccc(-c2cccc(Cl)c2)o1)S(=O)(=O)c1ccccc1
EC50 [7]: 2.02 µM (active) | EC50 [8]: 2.02 µM (active) | AC50 [9]: 1.73 µM (active) | AC50 [10]: 6.06 µM (active)

CNC(=O)/C(C#N)=C/c1c(N(Cc2ccccc2)Cc2ccccc2)nc2c(C)cccn2c1=O
CC50 [2]: 10.1 µM (active) | AC50 [11]: > 120 µM (inactive) | EC50 [12]: 104 µM (active) | IC50 [4]: 11.3 µM (active)

CCc1ccc(NC2CC(=O)N(c3ccc(OC)cc3OC)C2=O)cc1 (centres undefined)
IC50 [1]: > 50 µM (not active)

CCc1ccc2cccc3c2c1N=CN3C
AC50 [13]: 0.24 µM (active) | AC50 [14]: 6.79 µM (active) | AC50 [15]: 7.21 µM (active)

Cn1nc(CC(=O)Nc2ncc(Br)s2)c2ccccc2c1=O
IC50 [16]: > 50 µM (not active)

C=C(C)C1CC=C(CN2CCN(Cc3ccccc3)CC2)CC1 (centres undefined)
EC50 [17]: < 0.1 µM (active) | EC50 [18]: > 60 µM (not active) | EC50 [19]: 0.189 µM (active)

Cc1nc2c(=O)[nH]c(=S)[nH]c2nc1O
AC50 [14]: 6.58 µM (active) | AC50 [15]: 16.2 µM (active)

C[C@@H]1CN([C@H](C)CO)C(=O)c2cc(NS(=O)(=O)c3cccs3)ccc2O[C@@H](C)CCCCO[C@H]1CN(C)Cc1ccc(Cl)c(Cl)c1
AC50 [20]: 9.2 µM (active) | AC50 [21]: 46.5 µM (active)
